Laboratory results from paper PMC11651168, “Effective, but Safe? Physiologically Based Pharmacokinetic (PBPK)-Modeling-Based Dosing Study of Molnupiravir for Risk Assessment in Pediatric Subpopulations” (ACS Pharmacology & Translational Science, 2024).
Like-named read-outs stand apart in the source and are kept apart here. Marks after values point to notes of the source that are not given here.

Key:
[1] = cited from earlier work
[2] = PAMPA permeability assay; type: in vitro ADME
Procedure: For the PAMPA assay, a PAMP-096 kit from BioAssay Systems was used. Theophyllin, chloramphenicol, and diclofenac were used as low, high, and medium permeability controls, respectively. The assay was conducted as described in the manufacturer’s protocol. For all compounds, 10 mg/mL DMSO stocks were used. Compound concentrations were determined using HPLC-MS/MS. For the HPLC-MS measurements, samples were analyzed using an Agilent 1290 Infinity II HPLC system coupled to an AB Sciex QTrap 6500plus as described below. Permeability was determined as follows in eqs 2 and 3.
Effective permeability (Peff) was calculated using the following formula [drawing 2] 2 [drawing 3] 3 where the PAt is average peak area of the test compound or permeability standard and PAE is the peak area of the equilibrium standard. The value of C was calculated by the following formula, where donor volume (VD) is 0.2 cm^3, acceptor volume (VA) is 0.3 cm^3, membrane area is 0.24 cm^2, and incubation time is 72,360 s.
(§1) Samples were analyzed using an Agilent 1290 Infinity II HPLC system coupled to an AB Sciex QTrap 6500plus mass spectrometer. LC conditions were as follows: column: Agilent Zorbax Eclipse Plus C18, 50 × 2.1 mm, 1.8 μm; temperature: 30 °C; injection volume: 1 μL per sample; flow rate: 700 μL/min. Samples were collected under the following conditions. Solvents: A: 100% water +0.1% HCOOH; solvent B: 100% ACN +0.1% HCOOH. The gradient was as follows: 99% A at 0 min, 99% A until 1 min, 99–0% A from 1 to 3 min, 99% A until 3.2 min. Mass transitions are depicted in Table S1. Peaks of samples were quantified by using relative quantification. Data analysis was performed by using Multiquant 3.0 software (AB Sciex).

[3] = tested on: rats; experiment: Preclinical bone and cartilage toxicity in rats; details: allometric scaling of 500 mg/kg/day in rats, scaling factors of ref 38
[4] = Plasma protein binding assay; type: in vitro ADME; details: 2 h incubation; for fraction unbound at 2 h: plasma
Procedure: (§2) First, for the construction of the adult molnupiravir-NHC PBPK model, the physicochemical properties were incorporated. Moreover, ADME in vitro assays were performed to allow a better estimation of in vivo PK behavior. In particular, the plasma stability and the metabolic stability assays were used to derive information on the half-life of molnupiravir and the subsequent generation of NHC. […] This information was taken into account during parameter optimization. […] The determination of the log P value yielded information for calculation of the partition coefficients. […] This value was used as a basis for the subsequent parameter optimization. As NHC is further converted to NHC-TP, which is cleared via the endogenous nucleoside pool, renal clearance as well as hepatic clearance, indicated by our in vitro data, is not involved in clearance.
(§3) The plasma protein binding assay, the plasma stability assay, and the metabolic stability assay were performed as described previously.[30] For all of the assays, NHC and molnupiravir were used. Molnupiravir and NHC were purchased from Merck/Sigma.

[5] = tested on: rats; design: method as in earlier work; details: over three months; cited from earlier work
[6] = cited from earlier work; remark: listed apart in the source
[7] = tested on: dogs; details: 14 days; cited from earlier work
[8] = Microsomal metabolic stability assay; type: in vitro ADME; details: microsomes; for microsomal CLint: microsomal metabolic stability (Clint; in vitro)
Procedure: as §2, §3

[9] = tested on: dogs; experiment: Preclinical toxicity study in dogs; details: allometric scaling of 50 mg/kg/day in dogs, scaling factors of ref 38
[10] = Plasma stability assay; type: in vitro ADME; details: for half-life: plasma
Procedure: as §2, §3

[11] = Pediatric PBPK model for neonates, infants and children in early childhood (PK-Sim); design: species or system human
[12] = cited from earlier work; remark: listed apart in the source
[13] = tested on: SARS-CoV-2 delta; design: method as in Wen et al., 2023 (36); details: ref Wen et al., 2023 (36), read-out: Antiviral activity, EC50; cited from earlier work
[14] = tested on: SARS-CoV-2 beta; design: method as in Wen et al., 2023 (36); details: ref Wen et al., 2023 (36), read-out: Antiviral activity, EC50; cited from earlier work
[15] = tested on: SARS-CoV-2 omicron BA.2 lineage; design: method as in Wen et al., 2023 (36); details: ref Wen et al., 2023 (36), read-out: Antiviral activity, EC50; cited from earlier work
[16] = tested on: SARS-CoV-2 omicron BA.1 lineage; design: method as in Wen et al., 2023 (36); details: ref Wen et al., 2023 (36), read-out: Antiviral activity, EC50; cited from earlier work
[17] = Experimental determination of log P (octan-1-ol/water); type: physicochemical; details: data from in vitro studies
Procedure: The log P experiment was performed for molnupiravir and its metabolite NHC. Octan-1-ol and water were saturated 24 h prior to the start of the experiment. Each compound was added to the octan-1-ol phase at a final concentration of 100 ng/mL. Two setups were used: octan-1-ol/water (1:1) and octan-1-ol/water (1:10). After addition of the compound, each phase was shaken at 2000 rpm for 1 h, and then, phases were separated by centrifugation at 13,000 rpm for 5 min at 4 °C. From each sample, 10 μL of water layer and octanol layer was diluted to 100 μL with DMSO for high-performance liquid chromatography tandem mass spectrometry (HPLC-MS/MS) analysis. The log P was calculated by Formula 1. [drawing 1] 1
as §1, with “Data analysis was performed by using Multiquant 3.0 software (AB Sciex).” left out

[18] = tested on: SARS-CoV-2 wildtype; design: method as in Wen et al., 2023 (36); details: ref Wen et al., 2023 (36), read-out: Antiviral activity, EC50; cited from earlier work
[19] = tested on: SARS-CoV-2 alpha; design: method as in Wen et al., 2023 (36); details: ref Wen et al., 2023 (36), read-out: Antiviral activity, EC50; cited from earlier work

CC(C)C(=O)OC[C@H]1O[C@@H](n2ccc(NO)nc2=O)[C@H](O)[C@@H]1O [Molnupiravir]
pKa ([1]; first of three values): 2.2
pKa ([1]; second of three printed values): 10.2
pKa ([1]; third of three printed values): 12.0
permeability (in words) [2]: moderate permeability
permeability (PAMPA) ([2]; 72360 s): 3.1 10^–6 cm/s
Papp at 72360 s ([2]; data from in vitro studies, read-out: specific intestinal permeability (converted)): 3.1 ×10⁻⁶ cm/s
human equivalent dose of the toxicity-associated rat dose [3]: around 80 mg/kg/day
plasma protein binding (%) [4]: 38.08 ^b %
fraction unbound at 2 h [4]: ~0.62
dose at which bone and cartilage toxicity was observed [5]: exceeding 500 mg/kg/day
decrease in Cmax with food (ratio) ([6]; concomitant food consumption): 1.6
effect of food on total exposure (AUC0–∞) ([6]; concomitant food consumption): not impacted
Tmax ([6]; with concomitant food consumption): 3.0 h
Tmax ([6]; without food): 1.0 h
dose at which no toxicity was observed [7]: 50 mg/kg/day
microsomal metabolic stability (Clint; in vitro) [8]: 40.6 ^b μL/min/mg protein
microsomal CLint [8]: ~40 µL/min/mg
human equivalent dose of the nonobserved toxicity dose in dogs [9]: 27 mg/kg/day
plasma stability (in words) [10]: degraded rapidly in plasma
half-life [10]: < 0.25 h
fold higher doses needed in pediatric subpopulations for similar efficacy to adults [11]: 2–3 fold
solubility [12]: 41[21] mg/mL

O=c1nc(NO)ccn1[C@@H]1O[C@H](CO)[C@@H](O)[C@H]1O [NHC, β-D-N4-hydroxycytidine]
pKa ([1]; model input, source not given): 12.30
EC50 [13]: 890 nM
EC50 [14]: 480 nM
plasma protein binding (%) [4]: 38.84 ^b %
fraction unbound at 2 h [4]: ~0.64
microsomal CLint [8]: ~11.6 µL/min/mg
EC50 [15]: 670 nM
EC50 [16]: 280 nM
logP [17]: 0.1
plasma stability (in words) [10]: stable in plasma
half-life [10]: > 4 h
EC50 [18]: 300 nM
EC50 [19]: 530 nM
solubility [12]: 21[21] mg/mL
